Results published in patent US20120083522A1, “MODULATION OF INFLAMMATORY RESPONSES BY FACTOR XI” (Isis Pharmaceuitcals, inc., priority 2009, published 2012).
In the oligonucleotide strings, read from the 5' end, every base follows the letter of its sugar. An asterisk marks phosphorothioate; unmarked linkages are phosphodiester. Other units and linkages are bracketed, terminal groups are in braces. A string of capitals states the bases alone. e = 2'-O-(2-methoxyethyl) (MOE); [5mC] = 5-methylcytosine; d = 2'-deoxy (DNA)

Key:
Format in all cases: in vivo
[1] = Tolerability in Sprague-Dawley rats: hematology assays (Example 19); settings: 50 mg/kg s.c. twice per week for 6 weeks
[2] = Tolerability in CD1 mice: kidney function (Example 17); settings: plasma, 50 mg/kg s.c. twice a week
Source text: Results are presented in Tables 62 and 63, expressed in mg/dL.

[3] = Tolerability in Sprague-Dawley rats: kidney function (Example 19); settings: Sprague-Dawley rats, plasma, 50 mg/kg s.c. twice per week for 6 weeks
Source text: (§1) Urine samples were taken before the start of treatment.

[4] = Tolerability in Sprague-Dawley rats: liver function (Example 19); settings: plasma, 50 mg/kg s.c. twice per week for 6 weeks
Source text: as §1

[5] = Tolerability in Sprague-Dawley rats: hematology assays (Example 19); settings: 50 mg/kg s.c. twice per week for 6 weeks; for MCH / Hemoglobin / MCHC: title says % control
Source text: as §1

[6] = Tolerability in CD1 mice: liver function (Example 17); parameters: Albumin: unit not given here; settings: plasma, 50 mg/kg s.c. twice a week
[7] = Tolerability in CD1 mice: hematology assays (Example 17); settings: for lymphocyte count / monocyte count / neutrophil count: percent of total blood cell count; for HCT / MCH / MCHC / MCV / WBC count: blood, 50 mg/kg s.c. twice a week
Description: A control group of five mice was injected subcutaneously with PBS for 2 weeks. All experimental groups (i.e. ASO treated mice at 2, 4, 6 weeks) were compared to the control group (i.e. PBS, 2 weeks).
Blood obtained from all mice groups were sent to Antech Diagnostics for hematocrit (HCT), mean corpuscular volume (MCV), mean corpuscular hemoglobin (MCH), and mean corpuscular hemoglobin concentration (MCHC) measurements and analyses, as well as measurements of the various blood cells, such as WBC (neutrophils, lymphocytes, and monocytes), RBC, and platelets, and total hemoglobin content. Percentages given in the tables indicate the percent of total blood cell count.

ATGCCCTTCATGTCTAGGTC (all C 5-methyl, all phosphorothioate, sugars by position not given here; MOE gapmer) [ISIS 416826, 5-10-5 MOE gapmer]
Monocytes [1]: 7% | Neutrophils [1]: 30% | Platelets [1]: 11 10^3/μL | RBC [1]: 5 pL⁻¹ | WBC [1]: 7 nL⁻¹ | HCT ([1]; title says % control): 7% | Hemoglobin ([1]; title says % control): 7 g/dL | MCHC ([1]; title says % control): 4% | MCV ([1]; title says % control): 6 fL | BUN ([2]; 2 weeks): 24 mg/dL | creatinine ([2]; 2 weeks): 0.15 mg/dL | BUN ([2]; 4 weeks): 34 mg/dL | creatinine ([2]; 4 weeks): 0.20 mg/dL | BUN ([2]; 6 weeks): 27 mg/dL | creatinine ([2]; 6 weeks): 0.15 mg/dL | BUN [3]: 25 mg/dL | creatinine [3]: 6 mg/dL | ALT [4]: 611 IU/L | AST [4]: 104 IU/L | Albumin [4]: 6 mg/dL | Bilirubin [4]: 115 mg/dL | Lymphocytes [5]: 5% | MCH [5]: 3 pg | ALT ([6]; 2 weeks): 182 IU/L | AST ([6]; 2 weeks): 274 IU/L | Albumin ([6]; 2 weeks): 3.3 | Bilirubin ([6]; 2 weeks): 0.39 mg/dL | ALT ([6]; 4 weeks): 126 IU/L | AST ([6]; 4 weeks): 156 IU/L | Albumin ([6]; 4 weeks): 3.4 | Bilirubin ([6]; 4 weeks): 0.20 mg/dL | ALT ([6]; 6 weeks): 1954 IU/L | AST ([6]; 6 weeks): 1411 IU/L | Albumin ([6]; 6 weeks): 3.4 | Bilirubin ([6]; 6 weeks): 0.37 mg/dL | RBC count ([7]; 2 weeks): 8 cells/pL | hemoglobin content ([7]; 2 weeks): 13.4 g/dL | platelet count ([7]; 2 weeks): 1498 cells/nL | lymphocyte count ([7]; 2 weeks): 70% | monocyte count ([7]; 2 weeks): 3% | neutrophil count ([7]; 2 weeks): 26% | RBC count ([7]; 4 weeks): 8 cells/pL | hemoglobin content ([7]; 4 weeks): 12.8 g/dL | platelet count ([7]; 4 weeks): 970 cells/nL | lymphocyte count ([7]; 4 weeks): 61% | monocyte count ([7]; 4 weeks): 5% | neutrophil count ([7]; 4 weeks): 33% | RBC count ([7]; 6 weeks): 7 cells/pL | hemoglobin content ([7]; 6 weeks): 11.0 g/dL | platelet count ([7]; 6 weeks): 645 cells/nL | lymphocyte count ([7]; 6 weeks): 67% | monocyte count ([7]; 6 weeks): 8% | neutrophil count ([7]; 6 weeks): 23% | HCT ([7]; 2 weeks): 47% | MCH ([7]; 2 weeks): 17 pg | MCHC ([7]; 2 weeks): 29% | MCV ([7]; 2 weeks): 56 fL | WBC count ([7]; 2 weeks): 5 cells/nL | HCT ([7]; 4 weeks): 41% | MCH ([7]; 4 weeks): 16 pg | MCHC ([7]; 4 weeks): 31% | MCV ([7]; 4 weeks): 52 fL | WBC count ([7]; 4 weeks): 6 cells/nL | HCT ([7]; 6 weeks): 37% | MCH ([7]; 6 weeks): 16 pg | MCHC ([7]; 6 weeks): 30% | MCV ([7]; 6 weeks): 53 fL | WBC count ([7]; 6 weeks): 8 cells/nL

GCCCTTCATGTCTAGGTCCA [ISIS 416825] (eG*e[5mC]*e[5mC]*e[5mC]*eT*dT*d[5mC]*dA*dT*dG*dT*d[5mC]*dT*dA*dG*eG*eT*e[5mC]*e[5mC]*eA) [5-10-5 MOE gapmer]
Platelets ([1]; 50 mg/kg): 6 10^3/μL | WBC ([1]; 50 mg/kg): 22 nL⁻¹ | HCT ([1]; title says % control, 50 mg/kg): 2% | MCV ([1]; title says % control, 50 mg/kg): 4 fL | BUN ([2]; 2 weeks, 50 mg/kg): 29 mg/dL | creatinine ([2]; 2 weeks, 50 mg/kg): 0.14 mg/dL | BUN ([2]; 4 weeks, 50 mg/kg): 35 mg/dL | creatinine ([2]; 4 weeks, 50 mg/kg): 0.21 mg/dL | creatinine ([2]; 6 weeks): 0.17 mg/dL | BUN ([2]; 6 weeks, 50 mg/kg): 31 mg/dL | BUN ([3]; 50 mg/kg): 7 mg/dL | creatinine ([3]; 50 mg/kg): 17 mg/dL | ALT ([4]; 50 mg/kg): 89 IU/L | AST ([4]; 50 mg/kg): 17 IU/L | Albumin ([4]; 50 mg/kg): 2 mg/dL | Bilirubin ([4]; 50 mg/kg): 4 mg/dL | Lymphocytes ([5]; 50 mg/kg): 3% | Monocytes ([5]; 50 mg/kg): 15% | Neutrophils ([5]; 50 mg/kg): 25% | RBC ([5]; 50 mg/kg): 2 pL⁻¹ | MCH [5]: 2 pg | Hemoglobin ([5]; 50 mg/kg): 2 g/dL | MCHC ([5]; 50 mg/kg): 4% | ALT ([6]; 2 weeks, 50 mg/kg): 64 IU/L | AST ([6]; 2 weeks, 50 mg/kg): 82 IU/L | Albumin ([6]; 2 weeks, 50 mg/kg): 3.6 | Bilirubin ([6]; 2 weeks, 50 mg/kg): 0.41 mg/dL | ALT ([6]; 4 weeks, 50 mg/kg): 314 IU/L | AST ([6]; 4 weeks, 50 mg/kg): 239 IU/L | Albumin ([6]; 4 weeks, 50 mg/kg): 3.4 | Bilirubin ([6]; 4 weeks, 50 mg/kg): 0.69 mg/dL | ALT ([6]; 6 weeks, 50 mg/kg): 507 IU/L | AST ([6]; 6 weeks, 50 mg/kg): 301 IU/L | Albumin ([6]; 6 weeks, 50 mg/kg): 3.5 | Bilirubin ([6]; 6 weeks, 50 mg/kg): 0.29 mg/dL | RBC count ([7]; 2 weeks): 9 cells/pL | hemoglobin content ([7]; 2 weeks): 14.5 g/dL | platelet count ([7]; 2 weeks): 1689 cells/nL | lymphocyte count ([7]; 2 weeks): 82% | monocyte count ([7]; 2 weeks): 2% | neutrophil count ([7]; 2 weeks): 15% | RBC count ([7]; 4 weeks): 9 cells/pL | hemoglobin content ([7]; 4 weeks): 14.1 g/dL | platelet count ([7]; 4 weeks): 1229 cells/nL | lymphocyte count ([7]; 4 weeks): 53% | monocyte count ([7]; 4 weeks): 5% | neutrophil count ([7]; 4 weeks): 43% | RBC count ([7]; 6 weeks): 8 cells/pL | hemoglobin content ([7]; 6 weeks): 12.1 g/dL | platelet count ([7]; 6 weeks): 942 cells/nL | lymphocyte count ([7]; 6 weeks): 71% | monocyte count ([7]; 6 weeks): 4% | neutrophil count ([7]; 6 weeks): 23% | HCT ([7]; 2 weeks, 50 mg/kg): 49% | MCH ([7]; 2 weeks, 50 mg/kg): 17 pg | MCHC ([7]; 2 weeks, 50 mg/kg): 29% | MCV ([7]; 2 weeks, 50 mg/kg): 58 fL | WBC count ([7]; 2 weeks, 50 mg/kg): 8 cells/nL | MCH ([7]; 4 weeks): 16 pg | WBC count ([7]; 4 weeks): 8 cells/nL | HCT ([7]; 4 weeks, 50 mg/kg): 46% | MCHC ([7]; 4 weeks, 50 mg/kg): 31% | MCV ([7]; 4 weeks, 50 mg/kg): 53 fL | HCT ([7]; 6 weeks, 50 mg/kg): 40% | MCH ([7]; 6 weeks, 50 mg/kg): 15 pg | MCHC ([7]; 6 weeks, 50 mg/kg): 31% | MCV ([7]; 6 weeks, 50 mg/kg): 51 fL | WBC count ([7]; 6 weeks, 50 mg/kg): 6 cells/nL

GCCCTTCATGTCTAGGTCCA [ISIS 416892] (eG*e[5mC]*e[5mC]*d[5mC]*dT*dT*d[5mC]*dA*dT*dG*dT*d[5mC]*dT*dA*dG*dG*dT*e[5mC]*e[5mC]*eA) [3-14-3 MOE gapmer]
Platelets ([1]; 50 mg/kg): 66 10^3/μL | WBC ([1]; 50 mg/kg): 68 nL⁻¹ | HCT ([1]; title says % control, 50 mg/kg): 13% | MCV ([1]; title says % control, 50 mg/kg): 1 fL | BUN ([2]; 2 weeks, 50 mg/kg): 19 mg/dL | creatinine ([2]; 2 weeks, 50 mg/kg): 0.11 mg/dL | BUN ([2]; 4 weeks, 50 mg/kg): 28 mg/dL | creatinine ([2]; 4 weeks, 50 mg/kg): 0.20 mg/dL | creatinine ([2]; 6 weeks): 0.17 mg/dL | BUN ([2]; 6 weeks, 50 mg/kg): 23 mg/dL | BUN ([3]; 50 mg/kg): 188 mg/dL | creatinine ([3]; 50 mg/kg): 1 mg/dL | ALT ([4]; 50 mg/kg): 113 IU/L | AST ([4]; 50 mg/kg): 183 IU/L | Albumin ([4]; 50 mg/kg): 8 mg/dL | Bilirubin ([4]; 50 mg/kg): 1 mg/dL | Lymphocytes ([5]; 50 mg/kg): 18% | Monocytes ([5]; 50 mg/kg): 58% | Neutrophils ([5]; 50 mg/kg): 92% | RBC ([5]; 50 mg/kg): 12 pL⁻¹ | MCH [5]: 2 pg | Hemoglobin ([5]; 50 mg/kg): 14 g/dL | MCHC ([5]; 50 mg/kg): 0% | ALT ([6]; 2 weeks, 50 mg/kg): 66 IU/L | AST ([6]; 2 weeks, 50 mg/kg): 121 IU/L | Albumin ([6]; 2 weeks, 50 mg/kg): 3.2 | Bilirubin ([6]; 2 weeks, 50 mg/kg): 0.38 mg/dL | ALT ([6]; 4 weeks, 50 mg/kg): 1526 IU/L | AST ([6]; 4 weeks, 50 mg/kg): 1347 IU/L | Albumin ([6]; 4 weeks, 50 mg/kg): 4.0 | Bilirubin ([6]; 4 weeks, 50 mg/kg): 2.99 mg/dL | ALT ([6]; 6 weeks, 50 mg/kg): 1939 IU/L | AST ([6]; 6 weeks, 50 mg/kg): 1443 IU/L | Albumin ([6]; 6 weeks, 50 mg/kg): 4.4 | Bilirubin ([6]; 6 weeks, 50 mg/kg): 0.50 mg/dL | RBC count ([7]; 2 weeks): 7 cells/pL | hemoglobin content ([7]; 2 weeks): 13.0 g/dL | platelet count ([7]; 2 weeks): 1687 cells/nL | lymphocyte count ([7]; 2 weeks): 79% | monocyte count ([7]; 2 weeks): 3% | neutrophil count ([7]; 2 weeks): 19% | RBC count ([7]; 4 weeks): 9 cells/pL | hemoglobin content ([7]; 4 weeks): 13.5 g/dL | platelet count ([7]; 4 weeks): 636 cells/nL | lymphocyte count ([7]; 4 weeks): 52% | monocyte count ([7]; 4 weeks): 6% | neutrophil count ([7]; 4 weeks): 43% | RBC count ([7]; 6 weeks): 9 cells/pL | hemoglobin content ([7]; 6 weeks): 13.1 g/dL | platelet count ([7]; 6 weeks): 1004 cells/nL | lymphocyte count ([7]; 6 weeks): 64% | monocyte count ([7]; 6 weeks): 7% | neutrophil count ([7]; 6 weeks): 28% | HCT ([7]; 2 weeks, 50 mg/kg): 48% | MCH ([7]; 2 weeks, 50 mg/kg): 18 pg | MCHC ([7]; 2 weeks, 50 mg/kg): 30% | MCV ([7]; 2 weeks, 50 mg/kg): 59 fL | WBC count ([7]; 2 weeks, 50 mg/kg): 5 cells/nL | MCH ([7]; 4 weeks): 16 pg | WBC count ([7]; 4 weeks): 8 cells/nL | HCT ([7]; 4 weeks, 50 mg/kg): 42% | MCHC ([7]; 4 weeks, 50 mg/kg): 32% | MCV ([7]; 4 weeks, 50 mg/kg): 49 fL | HCT ([7]; 6 weeks, 50 mg/kg): 45% | MCH ([7]; 6 weeks, 50 mg/kg): 16 pg | MCHC ([7]; 6 weeks, 50 mg/kg): 30% | MCV ([7]; 6 weeks, 50 mg/kg): 53 fL | WBC count ([7]; 6 weeks, 50 mg/kg): 9 cells/nL
